Source: patent publication US9540619B2, “MELK regulation for the treatment of breast cancer” (NOVARTIS AG, priority 2013, dated 2017)
“Also recorded” adds a separate entry of the source. Where a SMILES comes first, the peptide text is derived from it. The star is where a group is joined. Cbz = O=C(OCc1ccccc1)*; CH2F = FC*

Key:
Type in all cases: cell-based, human
[1] = tested on: luminal cell lines, MCF7 and T47D; assay: Cell proliferation assay (crystal violet) upon doxycycline-induced shRNA; settings: knockdown induced with doxycycline 100 ng/ml
Method: (§1) Typically, breast cancer cells were seeded in 12-well plates (1-2×10^4) in 1 ml medium. On the next day, wells were added with 110 μl medium without or with 1 μg/ml doxycycline (to reach a final concentration of 100 ng/ml), which was repeated every two days. Six days after the initial treatment, cells were fixed with formaldehyde, and stained with crystal violet (0.05%, weight/volume), a chromatin-binding cytochemical stain. The plates were washed extensively, and imaged with a flatbed scanner. For quantification of the staining, 1 ml 10% acetic acid was added to each well to extract the dye. The absorbance was measured at 590 nm with 750 nm as a reference.

[2] = tested on: BBC cells including BT549, MDA-MB-468, MDA-MB-231, and MDA-MB-436; assay: as above; settings: knockdown induced with doxycycline 100 ng/ml; crystal violet staining six days after initial treatment
Method: as §1

FoxM1 [3] = assay: MELK abundance after FoxM1 inhibition (immunoblotting)
Method: Cells were lysed with RIPA buffer (25 mM Tris, pH 7.4, 150 mM NaCl, 1% Nonidet P-40, 0.5% sodium deoxycholate, and 0.1% sodium dodecyl sulfate) supplemented with protease inhibitors cocktail (Roche) and phosphatase inhibitors cocktail (Thermo Scientific). Cleared lysates were analyzed for protein concentration using BCA kit (Thermo Scientific). Equal amount of protein (10-20 μg) was resolved on 8% or 10% SDS-PAGE, and was subsequently transferred onto a nitrocellulose or polyvinylidene difluoride membrane (Amersham). The membrane was blocked with 5% non-fat milk and was then incubated with primary antibodies overnight at 4° C. After washing, the membrane was incubated with fluorophore-conjugated secondary antibodies for 1 h at room temperature. The membrane was then washed and scanned with an Odyssey Infrared scanner (Li-Cor Biosciences). Primary antibodies used in this study include anti MELK (Epitomics, #2916), anti-α-tubulin (Abcam), anti-cyclin B1 (Millipore), anti-Vinculin (Sigma), anti-FoxM1 (Santa Cruz), anti-β-tubulin, anti-phopho-Akt (S473), anti-phospho Akt (T308), anti-total Akt, anti-Flag, anti-cleaved PARP (Asp214), anti-cleaved Caspase 3, anti-AURKA, anti-AURKB, anti-p27 (all from Cell Signaling Technology). Secondary antibodies used were IRDye700-conjugated anti-rabbit IgG and IRDye800-conjugated anti-mouse IgG (Rockland).

caspases = assay: MELK knockdown-induced cell death with pan-caspase inhibitor; settings: MDA-MB-468 cells with shMELK, doxycycline 4 days, last two days with 40 μM zVad-fmk
FoxM1 [4] = assay: MELK transcription after FoxM1 inhibition (qRT-PCR); settings: cells treated for 16 h; quantitative PCR
Method: Total RNA was extracted from cultured cells with RNeasy Mini kit (Qiagen), with the use of QIAshredder spin column for homogenization and an on-column DNase digestion. Two micrograms of the total RNA was reversely transcribed using a High Capacity RNA to-cDNA Kit (Applied Biosystems). cDNAs were analyzed quantitatively using Power SYBR Green PCR Master Mix (Applied Biosystems) on an ABI7300 Real-time PCR system. Cycling conditions were 95° C. for 15 min, 40 cycles of 15 s at 94° C., 30 s at 55° C. and 30 s at 72° C. Ct values were generated using the default analysis settings. ΔCT was defined as Ctgene of interest-Ctβactin. ΔΔCT was defined as ΔCttreated sample-Ctcontrol sample. Relative quantification (RQ) was calculated as 2^−ΔΔCT. Statistical analysis was performed by Student's test.

| Compound | growth of luminal cell lines upon induction of the shRNA [1] | growth of BBC cells upon induction of the shRNA [2] | other results |
| --- | --- | --- | --- |
| GAGAGCTGTTTGACTATATAA (expressed or natural sequence) [MELK sh-413, ID; NO: 1] | protected from the induction of MELK silencing | strongly impaired the growth |  |
| GACTAAAGCTTCACTATAATG (expressed or natural sequence) [MELK sh-1805, ID; NO: 2] | protected from the induction of MELK silencing | strongly impaired the growth |  |
| ggaccacuuucccuacuuu [siRNA (SEQ ID NO: 31)] |  |  | abundance/expression of MELK protein (FoxM1 [3]; siRNA transfection, lysates three days after transfection): reduced the abundance of MELK; abundance/expression of MELK protein (FoxM1 [3]; siRNA transfection, lysates three days after transfection, listed as siRNA targeting FoxM1): suppresses MELK expression |
| GGTGTGATACAGCCTACATAA (expressed or natural sequence; the letters are possibly those of the target site) [shMELK1, ID; NO: 3] | protected from the induction of MELK silencing | strongly impaired the growth |  |
| GCCTGAAAGAAACTCCAATTA (expressed or natural sequence; the letters are possibly those of the target site) [shMELK2, ID; NO: 4] | protected from the induction of MELK silencing | strongly impaired the growth |  |
| COC(=O)C[C@H](NC(=O)[C@H](C)NC(=O)[C@@H](NC(=O)OCc1ccccc1)C(C)C)C(=O)CF [zVad, zVad-fmk] (Cbz-Val-Ala-Asp(OMe)-CH2F) |  |  | MELK knockdown-induced cell death (caspases): significantly reduced MELK knockdown-induced cell death |
| C=C(NC(=O)C(=C)NC(=O)c1csc(C2=N[C@@H]3c4csc(n4)[C@H]4NC(=O)c5csc(n5)[C@H]([C@](C)(O)[C@@H](C)O)NC(=O)[C@H]5CSC(=N5)/C(=C/C)NC(=O)[C@H]([C@@H](C)O)NC(=O)c5csc(n5)[C@]3(CC2)NC(=O)[C@H](C)NC(=O)C(=C)NC(=O)[C@H](C)NC(=O)[C@H]([C@@H](C)CC)N[C@@H]2C=Cc3c([C@H](C)O)cc(nc3[C@H]2O)C(=O)O[C@@H]4C)n1)C(N)=O [thiostrepton] |  |  | transcription of MELK (FoxM1 [4]): decreases the transcription of MELK; abundance/expression of MELK protein (FoxM1 [3]; MDA-MB-231 cells, 10 μM thiostrepton vs vehicle (0.1% DMSO)): reduced the abundance of MELK; also recorded: downregulates the expression of MELK |
